According to patent US20240132431A1, “METHOD FOR ALKYLATING ACIDIC FUNCTIONAL GROUP” (Chugai Seiyaku Kabushiki Kaisha, priority 2021, published 2024):
Each block holds one compound with its values, some of them ahead of it.

Target: T1, Bcl-2 protein (Recombinant Human Bcl-2 Protein) (Homo sapiens, UniProt P10415)
T1 construct: purchased Novus NBP2-34889
Experiment: Binding evaluation of mixture library compounds to Bcl-2 using AS-MS (affinity selection mass spectrometry)
Conditions: for ASMS ratio (%) n = 1: replicate n = 1; for ASMS ratio (%) n = 1 / ASMS ratio (%) n = 2: ASMS Ratio(%)=(A−C)/B×100; for ASMS ratio (%) n = 2: replicate n = 2
Method: For one well of MICROPLATE, 96-well, PP, V-BOTTOM (Greiner bio-one, 651201), DMSO solutions of 12 mixtures (prepared to approximately 0.58 mM based on calculations from the average molecular weight of each mixture), in each of which 100 compounds are mixed, were each dispensed, and dispensed into a total of 12 wells, where the 12 mixtures are mixAI-B4J-01, mixAI-B1M-01, mixAI-B1K-01, mixAI-B10-01, mixAI-B1A-01, mixAI-B3A-01, mixAI-B21-01, mixAI-B2L-01, mixAI-B2N-01, mixAI-B2A-01, mixAI-B2Q-01, and mixAI-B2R-01 listed in [Table AI-03-B4J-01], [Table AI-03-B1M-01], [Table AI-03-B1K-01], [Table AI-03-B10-01], [Table AI-03-B1A-01], [Table AI-03-B3A-01], [Table AI-03-B2I-01], [Table AI-03-B2L-01], [Table AI-03-B2N-01], [Table AI-03-B2A-01], [Table AI-03-B2Q-01], and [AI-03-B2R-01] shown in Example 6. Using the LABCYTE ECHO® 555 Acoustic Dispensing System (BECKMAN COULTER), 70 nL was collected from each of the 12 wells into one arbitrary well to prepare a sample solution with 1200 compounds in the mixed state (the presence of 1152 compounds had already been identified when prepared in Example 6-5-3). (In the present specification, the mixture collected in this one well is referred to as one library.) Furthermore, a Bcl-2 protein (Novus, NBP2-34889, Recombinant Human Bcl-2 Protein, Lot E60145051) (19.2 μL) that had been prepared in advance to be 20.9 μM using a Tris-HCl buffer (25 mM Tris-HCl pH 7.4, 150 mM NaCl, 0.025% Tween-20, 1 mM DTT) was added to the well in which 1200 compounds (the presence of 1152 compounds had already been identified when prepared in Example 6-5-3) were dispensed (final compound concentration […], final Bcl-2 concentration 20 μM), and the mixture was incubated in the dark at 23° C. for 1 hour. Next, using the 96-well MacroSpin column, P-2 Material (Harvard, 74-5655) that had been swollen, conditioning of the 96-well MacroSpin column was performed three times by centrifugation with 200 μL of an assay buffer (25 mM Tris-HCl pH 7.4, 150 mM NaCl, 0.025% Tween-20, 1 mM DTT), 2000 XG, 4° C., 2 min. Subsequently, 20 μL of the sample after incubation was added to the 96-well MacroSpin column, P-2 Material, that had been conditioned, and SEC treatment was performed by centrifugation at 2000×G for 2 minutes. To the liquid passed from the SEC, 32 μL of a 1:1 mixed solution of acetonitrile and methanol (LC/MS grade, Fujifilm Wako Pure Chemical Corporation) was added, the mixture was centrifuged at 1800×G, 4° C., 5 min, and the supernatant was used as analysis sample ASMS (A), while a sample that had been prepared by the same operations at 1200 compounds/well and to which only the Tris-HCl buffer had been added without the Bcl-2 protein was incubated under the same conditions, no 96-well MacroSpin column treatment was performed, the same organic solvent was added, and the supernatant solution obtained by centrifugation was used as STD (B). Next, a sample that had been prepared by the same operations at 1200 compounds/well and to which only the Tris-HCl buffer had been added without the Bcl-2 protein was incubated under the same conditions, the same 96-well MacroSpin column treatment was performed, the same organic solvent was added, and the supernatant solution obtained by centrifugation was used as BK (C), and measured by reversed phase LC/MS.
Then, analysis of the 1200 compounds was carried out for samples A, B, and C with TraceFinder 5.1 (Thermo Fisher Scientific) and CHANCE Software (in-house), and the ASMS Ratio (%) was calculated according to the following calculation formula.
Calculation formula: ASMS Ratio(%)=(A−C)/B×100

[1] = AS-MS on the mixture of 1200 library compounds
[2] = AS-MS, mixture of 1200 compounds, Bcl-2

T1 sequence (P10415 whole entry): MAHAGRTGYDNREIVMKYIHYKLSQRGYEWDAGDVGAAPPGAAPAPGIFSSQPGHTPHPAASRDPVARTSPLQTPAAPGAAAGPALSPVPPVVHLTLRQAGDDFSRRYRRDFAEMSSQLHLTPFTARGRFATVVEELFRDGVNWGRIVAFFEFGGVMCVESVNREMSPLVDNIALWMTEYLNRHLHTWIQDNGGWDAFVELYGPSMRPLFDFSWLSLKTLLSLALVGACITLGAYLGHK

ASMS ratio (%) n = 1 (AS-MS, mixture library, Bcl-2): 7.2%
ASMS ratio (%) n = 2 (AS-MS, mixture library, Bcl-2): 2.5%
SMILES: CCOc1cncc(-c2csc(CN3CCN(c4ccc(C(=O)NS(=O)(=O)c5ccc(NCCSc6ccccc6)c([N+](=O)[O-])c5)nn4)CC3)c2)c1 [B2Q094-01, 6-[4-[[4-(5-Ethoxypyridin-3-yl)thiophen-2-yl]methyl]piperazin-1-yl]-N-[3-nitro-4-(2-phenylsulfanylethylamino)phenyl]sulfonylpyridazine-3-carboxamide]

ASMS ratio (%) (n = 1): −3.7%
ASMS ratio (%) (n = 2): 1.2%
SMILES: CCOc1cccc(-c2ccc(C(=O)N3CCN(c4ccc(C(=O)NS(=O)(=O)c5ccc(NCCSc6ccccc6)c(C(F)(F)F)c5)cc4)CC3)cc2F)c1 [B2R027-01, 4-[4-[4-(3-Ethoxyphenyl)-3-fluorobenzoyl]piperazin-1-yl]-N-[4-(2-phenylsulfanylethylamino)-3-(trifluoromethyl)phenyl]sulfonylbenzamide]

ASMS ratio (%) n = 1 (AS-MS, mixture library, Bcl-2): 0.0%
ASMS ratio (%) n = 2 (AS-MS, mixture library, Bcl-2): 0.0%
SMILES: CCOc1cncc(-c2cc(C(=O)N3CCN(c4ccc(C(=O)NS(C)(=O)=O)cc4)CC3)cc(C(C)(C)C)c2)c1 [B2I038-01, 4-[4-[3-tert-Butyl-5-(5-ethoxypyridin-3-yl)benzoyl]piperazin-1-yl]-N-methylsulfonylbenzamide]

ASMS ratio (%) n = 1 [1]: 13.4%
ASMS ratio (%) n = 2 [1]: −14.2%
SMILES: CCOc1cccc(-c2cc(CN3CCN(c4ccc(C(=O)N(C)CC56CC7CC(CC(C7)C5)C6)nn4)CC3)cc(OCC)c2)c1 [B3A081-01, N-(1-Adamantylmethyl)-6-[4-[[3-ethoxy-5-(3-ethoxyphenyl)phenyl]methyl]piperazin-1-yl]-N-methylpyridazine-3-carboxamide]

ASMS ratio (%) (n = 1): 0.0%
ASMS ratio (%) (n = 2): 0.0%
SMILES: CCOc1cccc(-c2cc(CN3CCN(c4ccc(C(=O)NS(=O)(=O)C(C)(C)C)cc4)CC3)cc(OC(C)C)c2)c1 [B2L057-01, N-tert-Butylsulfonyl-4-[4-[[3-(3-ethoxyphenyl)-5-propan-2-yloxyphenyl]methyl]piperazin-1-yl]benzamide]

ASMS ratio (%) (n = 1): 0.0%
ASMS ratio (%) (n = 2): 0.0%
SMILES: CCOc1cncc(-c2cc(CN3CCN(c4ccc(C(=O)NS(=O)(=O)CCC(F)(F)F)cc4)CC3)cc(OC(C)C)c2)c1 [B2N058-01, 4-[4-[[3-(5-Ethoxypyridin-3-yl)-5-propan-2-yloxyphenyl]methyl]piperazin-1-yl]-N-(3,3,3-trifluoropropylsulfonyl)benzamide]

ASMS ratio (%) (n = 1): 0.0%
ASMS ratio (%) (n = 2): 0.0%
SMILES: CCOc1cccc(-c2cc(C(=O)N3CCN(c4ccc(C(=O)NS(=O)(=O)C(C)(C)C)cc4)CC3)cc(C(C)(C)C)c2)c1 [B2L037-01, 4-[4-[3-tert-Butyl-5-(3-ethoxyphenyl)benzoyl]piperazin-1-yl]-N-tert-butylsulfonylbenzamide]

ASMS ratio (%) n = 1 [2]: 2.6%
ASMS ratio (%) n = 2 [2]: −1.9%
SMILES: CCOc1cncc(-c2cnn(-c3cc(C(=O)N4CCN(c5ccc(C(=O)NCC67CC8CC(CC(C8)C6)C7)cc5)CC4)cc(C(F)(F)F)c3)c2)c1 [B1A044-01, N-(1-Adamantylmethyl)-4-[4-[3-[4-(5-ethoxypyridin-3-yl)pyrazol-1-yl]-5-(trifluoromethyl)benzoyl]piperazin-1-yl]benzamide]

ASMS ratio (%) n = 1 [1]: −5.5%
ASMS ratio (%) n = 2 [1]: −7.2%
SMILES: CCOc1cccc(-c2cc(CN3CCN(c4ccc(C(=O)N(C)CC56CC7CC(CC(C7)C5)C6)nn4)CC3)cc(OC(F)(F)F)c2)c1 [B3A089-01, N-(1-Adamantylmethyl)-6-[4-[[3-(3-ethoxyphenyl)-5-(trifluoromethoxy)phenyl]methyl]piperazin-1-yl]-N-methylpyridazine-3-carboxamide]

ASMS ratio (%) n = 1 [2]: −0.1%
ASMS ratio (%) n = 2 [2]: −14.4%
SMILES: CCOc1cccc(-c2cc(CN3CCN(c4ccc(C(=O)NCC56CC7CC(CC(C7)C5)C6)cc4)CC3)cc(OCC)c2)c1 [B1A055-01, N-(1-Adamantylmethyl)-4-[4-[[3-ethoxy-5-(3-ethoxyphenyl)phenyl]methyl]piperazin-1-yl]benzamide]

ASMS ratio (%) n = 1 (AS-MS, mixture library, Bcl-2): 0.0%
ASMS ratio (%) n = 2 (AS-MS, mixture library, Bcl-2): 0.0%
SMILES: CCOc1cccc(-c2cc(C(=O)N3CCN(c4ccc(C(=O)NS(C)(=O)=O)nn4)CC3)cc(C(C)(C)C)c2)c1 [B2I015-01, 6-[4-[3-tert-Butyl-5-(3-ethoxyphenyl)benzoyl]piperazin-1-yl]-N-methylsulfonylpyridazine-3-carboxamide]

ASMS ratio (%) n = 1 (AS-MS, mixture library, Bcl-2): 1.2%
ASMS ratio (%) n = 2 (AS-MS, mixture library, Bcl-2): −5.5%
SMILES: CCOc1cccc(-c2ccc(CN3CCN(c4ccc(C(=O)N(CC)CC)nn4)CC3)cc2F)c1 [B4J077-01, 6-[4-[[4-(3-Ethoxyphenyl)-3-fluorophenyl]methyl]piperazin-1-yl]-N,N-diethylpyridazine-3-carboxamide]

ASMS ratio (%) n = 1 [1]: −42.7%
ASMS ratio (%) n = 2 [1]: −0.2%
SMILES: CCOc1cncc(-c2ccc(C(C)N3CCN(c4ccc(C(=O)Nc5ccc(OC)cc5)cc4)CC3)cc2)c1 (centres unmarked) [B1O098-01, 4-[4-[1-[4-(5-Ethoxypyridin-3-yl)phenyl]ethyl]piperazin-1-yl]-N-(4-methoxyphenyl)benzamide]

ASMS ratio (%) n = 1 (AS-MS, mixture library, Bcl-2): 13.3%
ASMS ratio (%) n = 2 (AS-MS, mixture library, Bcl-2): 11.9%
SMILES: CCOc1cncc(-c2cc(CN3CCN(c4ccc(C(=O)NS(=O)(=O)CC56CC7CC(CC(C7)C5)C6)nn4)CC3)cc(OC(C)C)c2)c1 [B2A084-01, N-(1-Adamantylmethylsulfonyl)-6-[4-[[3-(5-ethoxypyridin-3-yl)-5-propan-2-yloxyphenyl]methyl]piperazin-1-yl]pyridazine-3-carboxamide]

ASMS ratio (%) n = 2 [1]: 0.0%
SMILES: CCOc1cncc(-c2cc(CN3CCN(c4ccc(C(=O)N(C)CC56CC7CC(CC(C7)C5)C6)cc4)CC3)cc(OCC)c2)c1 [B3A056-01, N-(1-Adamantylmethyl)-4-[4-[[3-ethoxy-5-(5-ethoxypyridin-3-yl)phenyl]methyl]piperazin-1-yl]-N-methylbenzamide]

ASMS ratio (%) n = 1 (AS-MS, mixture library, Bcl-2): 0.0%
ASMS ratio (%) n = 2 (AS-MS, mixture library, Bcl-2): 0.0%
SMILES: CCOc1cccc(C#Cc2cncc(C(=O)N3CCN(c4ccc(C(=O)NS(C)(=O)=O)cc4)CC3)c2)c1 [B2I031-01, 4-[4-[5-[2-(3-Ethoxyphenyl)ethynyl]pyridine-3-carbonyl]piperazin-1-yl]-N-methylsulfonylbenzamide]

ASMS ratio (%) n = 1 [1]: 1.1%
ASMS ratio (%) n = 2 [1]: 1.3%
SMILES: CCOc1cccc(C#Cc2cncc(C(=O)N3CCN(c4ccc(C(=O)Nc5ccc(OC)cc5)nn4)CC3)c2)c1 [B1O009-01, 6-[4-[5-[2-(3-Ethoxyphenyl)ethynyl]pyridine-3-carbonyl]piperazin-1-yl]-N-(4-methoxyphenyl)pyridazine-3-carboxamide]

ASMS ratio (%) n = 1 [2]: −0.9%
ASMS ratio (%) n = 2 [2]: −20.6%
SMILES: CCOc1cccc(-c2cc(C(=O)N3CCN(c4ccc(C(=O)NCC56CC7CC(CC(C7)C5)C6)nn4)CC3)cc(C(C)(C)C)c2)c1 [B1A015-01, N-(1-Adamantylmethyl)-6-[4-[3-tert-butyl-5-(3-ethoxyphenyl)benzoyl]piperazin-1-yl]pyridazine-3-carboxamide]
